# Experimental data taken from ChEMBL document CHEMBL1165900, “A computational study of the binding of 3-(arylidene) anabaseines to two major brain nicotinic acetylcholine receptors and to the acetylcholine binding protein” (Eur J Med Chem, 2010).
# How the values were obtained:
# [1] = target: Neuronal acetylcholine receptor subunit alpha-7 (Rattus norvegicus, UniProt Q05941); type: cell membranes, Brain, Membrane
# Description: (§2) Displacement of [125I]-alpha-bungarotoxin from alpha7 nAChR in rat brain membrane after 3 hrs
# [2] = target: Neuronal acetylcholine receptor; alpha4/beta2 (Rattus norvegicus) (UniProt P09483+P12390); test: (§1) Displacement of [3H]cytisine from alpha4beta2 nAChR in rat brain membrane after 3 hrs; type: cell membranes
# [3] = target: Neuronal acetylcholine receptor; alpha4/beta2 (Rattus norvegicus, UniProt P09483+P12390); test: as §1; type: cell membranes
# Neuronal acetylcholine receptor; alpha4/beta2, sequence (P09483 whole entry): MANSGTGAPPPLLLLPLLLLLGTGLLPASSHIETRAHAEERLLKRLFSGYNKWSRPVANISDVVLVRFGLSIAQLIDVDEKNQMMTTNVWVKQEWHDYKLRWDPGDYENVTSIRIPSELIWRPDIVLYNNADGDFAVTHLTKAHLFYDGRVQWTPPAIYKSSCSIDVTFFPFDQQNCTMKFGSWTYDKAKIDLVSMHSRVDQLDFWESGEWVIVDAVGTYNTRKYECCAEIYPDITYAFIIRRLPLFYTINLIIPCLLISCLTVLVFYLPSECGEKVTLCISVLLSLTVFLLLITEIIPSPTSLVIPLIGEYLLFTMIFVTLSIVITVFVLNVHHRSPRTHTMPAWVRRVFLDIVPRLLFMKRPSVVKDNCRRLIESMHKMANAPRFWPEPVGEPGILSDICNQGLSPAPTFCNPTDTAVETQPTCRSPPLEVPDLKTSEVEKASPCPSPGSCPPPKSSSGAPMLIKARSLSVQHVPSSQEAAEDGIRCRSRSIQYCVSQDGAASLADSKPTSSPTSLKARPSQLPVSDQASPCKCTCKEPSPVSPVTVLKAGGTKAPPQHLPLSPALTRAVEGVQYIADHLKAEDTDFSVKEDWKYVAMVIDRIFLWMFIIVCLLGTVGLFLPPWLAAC
# Neuronal acetylcholine receptor; alpha4/beta2, sequence (P12390 whole entry): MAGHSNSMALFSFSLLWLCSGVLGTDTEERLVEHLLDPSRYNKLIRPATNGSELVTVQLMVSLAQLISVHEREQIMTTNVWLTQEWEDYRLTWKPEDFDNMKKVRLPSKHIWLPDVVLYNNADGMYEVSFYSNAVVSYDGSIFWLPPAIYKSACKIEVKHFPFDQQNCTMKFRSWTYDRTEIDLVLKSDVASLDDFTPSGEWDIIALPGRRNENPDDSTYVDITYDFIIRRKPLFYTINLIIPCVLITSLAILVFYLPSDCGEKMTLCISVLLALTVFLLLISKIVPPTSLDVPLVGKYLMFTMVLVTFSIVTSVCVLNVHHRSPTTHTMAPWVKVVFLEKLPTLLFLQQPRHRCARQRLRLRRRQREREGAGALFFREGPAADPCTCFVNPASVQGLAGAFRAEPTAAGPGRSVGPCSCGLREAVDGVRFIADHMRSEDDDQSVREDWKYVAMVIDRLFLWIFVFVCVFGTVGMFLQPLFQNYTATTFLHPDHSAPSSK
# [4] = target: Neuronal acetylcholine receptor subunit alpha-7 (Rattus norvegicus) (UniProt Q05941); details: Brain, Membrane
# Neuronal acetylcholine receptor subunit alpha-7 (Rattus norvegicus), sequence (Q05941 whole entry): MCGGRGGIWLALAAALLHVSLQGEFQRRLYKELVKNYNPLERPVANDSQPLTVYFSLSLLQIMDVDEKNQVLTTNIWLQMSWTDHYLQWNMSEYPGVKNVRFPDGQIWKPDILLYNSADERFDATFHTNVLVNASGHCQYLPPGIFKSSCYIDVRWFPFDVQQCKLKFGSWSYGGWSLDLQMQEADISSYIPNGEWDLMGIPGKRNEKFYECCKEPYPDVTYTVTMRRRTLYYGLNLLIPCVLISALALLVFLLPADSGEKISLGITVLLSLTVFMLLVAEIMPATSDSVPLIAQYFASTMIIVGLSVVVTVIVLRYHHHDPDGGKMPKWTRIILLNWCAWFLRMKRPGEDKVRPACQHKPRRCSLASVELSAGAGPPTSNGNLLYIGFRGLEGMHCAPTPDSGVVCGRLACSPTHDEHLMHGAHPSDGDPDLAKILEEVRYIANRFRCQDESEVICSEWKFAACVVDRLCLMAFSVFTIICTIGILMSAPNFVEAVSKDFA
# Description: as §2
# Neuronal acetylcholine receptor subunit alpha-7, sequence (Q05941 whole entry): as above
Compound,Ki [1] [nM],Ki [2] [nM],Ki [3] [nM],Ki [4] [nM]
CN(C)c1ccc(/C=C2\CCCN=C2c2cccnc2)cc1,80,770,170,1100
CNc1ccc(/C=C2\CCCN=C2c2cccnc2)cc1,50,1300,50,1300
C(=C1/CCCN=C1c1cccnc1)/c1cc2ccccc2o1,–,772,–,823
CC(C)(C)Oc1ccc(/C=C2\CCCN=C2c2cccnc2)cc1,2230,336,2170,348
COc1cccc(/C=C2\CCCN=C2c2cccnc2)c1,460,72,1180,337
Clc1ccc(/C=C2\CCCN=C2c2cccnc2)cc1,1120,13,970,49
COc1ccc(/C=C2\CCCN=C2c2cccnc2)c(OC(C)C)c1,70,770,170,1160
Oc1cccc(/C=C2\CCCN=C2c2cccnc2)c1,150,68,1170,824
FC(F)(F)Oc1ccc(/C=C2\CCCN=C2c2cccnc2)cc1,–,–,930,–
Cc1cc(O)cc(C)c1/C=C1\CCCN=C1c1cccnc1,5490,174,670,740
C(=C1/CCCN=C1c1cccnc1)/c1ccc(-n2ccnn2)cc1,–,284,–,72
COc1ccc2cc(/C=C3\CCCN=C3c3cccnc3)ccc2c1,–,222,–,432
C(=C1/CCCN=C1c1cccnc1)/c1ccc(N2CCOCC2)cc1,300,553,280,523
COc1cc(OC)c(/C=C2\CCCN=C2c2cccnc2)c(OC)c1,180,1220,60,745
CC(C)(C)C(=O)Oc1ccc(/C=C2\CCCN=C2c2cccnc2)cc1,690,81,830,161
Oc1ccc(/C=C2\CCCN=C2c2cccnc2)c(O)c1,200,678,210,699
C(=C1/CCCN=C1c1cccnc1)/c1ccc2c(c1)OCO2,–,155,–,638
CCCc1ccc(/C=C2\CCCN=C2c2cccnc2)cc1,280,51,890,553
CC(C)(C)C(=O)Oc1ccccc1/C=C1\CCCN=C1c1cccnc1,650,158,1440,187
Cc1ccc(/C=C2\CCCN=C2c2cccnc2)cc1,436,4,990,361
COc1cc(/C=C2\CCCN=C2c2cccnc2)cc(OC)c1OC,3480,669,4670,542
CCN(CC)c1ccc(/C=C2\CCCN=C2c2cccnc2)c(O)c1,50,886,130,1300

Compound,Ki [1] [nM],Ki [2] [nM],Ki [3] [nM],Ki [4] [nM]
COc1ccc(/C=C2\CCCN=C2c2cccnc2)c(OC)c1 [GTS-21],130,602,250,886
COc1ccc(/C=C2\CCCN=C2c2cccnc2)c(OC(C)=O)c1,300,114,770,523
C(=C1/CCCN=C1c1cccnc1)/c1ccc2c(c1)OCCO2,–,284,–,699
Cc1cc(C)c(/C=C2\CCCN=C2c2cccnc2)c(C)c1,1510,284,520,179
CC(=O)c1ccc(/C=C2\CCCN=C2c2cccnc2)cc1,–,–,4490,–
CC(=O)Oc1ccc(/C=C2\CCCN=C2c2cccnc2)cc1,170,602,250,770
CSc1ccc(/C=C2\CCCN=C2c2cccnc2)cc1,250,46,900,602
FC(F)Oc1ccccc1/C=C1\CCCN=C1c1cccnc1,–,–,1410,–
CCC(CC)Oc1cc(OC)ccc1/C=C1\CCCN=C1c1cccnc1,50,367,430,1300
C(=C1/CCCN=C1c1cccnc1)/c1ccccc1 [3-BENZYLIDENEANABASEINE],600,71,850,222
CCCCOc1ccc(/C=C2\CCCN=C2c2cccnc2)cc1,–,–,1960,–
CC(=O)Oc1ccccc1/C=C1\CCCN=C1c1cccnc1,570,155,700,244
N#Cc1ccc(/C=C2\CCCN=C2c2cccnc2)cc1,2300,90,1230,362
Oc1ccc(/C=C2\CCCN=C2c2cccnc2)cc1,360,347,450,444
CC(=O)Nc1ccc(/C=C2\CCCN=C2c2cccnc2)cc1,240,420,380,620
Nc1ccc(/C=C2\CCCN=C2c2cccnc2)cc1,50,921,120,1300
Cc1cc(/C=C2\CCCN=C2c2cccnc2)cc(C)c1O,530,444,360,276
FC(F)Oc1ccc(/C=C2\CCCN=C2c2cccnc2)cc1,1010,64,1160,4
COc1ccc(/C=C2\CCCN=C2c2cccnc2)cc1,570,310,490,244
FC(F)(F)Oc1ccccc1/C=C1\CCCN=C1c1cccnc1,–,246,1760,–
COc1ccc(/C=C2\CCCN=C2c2cccnc2)c(O)c1,320,409,390,495
OCCN(CCO)c1ccc(/C=C2\CCCN=C2c2cccnc2)cc1,190,796,160,721
